Experimental data as given in paper PMC6222706, “Evaluation of the Antioxidant and Neuroprotectant Activities of New Asymmetrical 1,3-Diketones” (Molecules : A Journal of Synthetic Chemistry and Natural …, 2018).
Converted amounts (≈) assume the structure as drawn.

What was measured:
[1] = ABTS radical scavenging assay; format: biochemical; settings: for IC50: 30 min incubation, EtOH, absorbance at 734 nm; for ABTS-TEAC100: Trolox Equivalent Antioxidant Capacity vs 100 µM solution of the substance, from ABTS assay
Protocol: ABTS^+ radical was produced by reacting 2,2′-azino-bis-3-ethylbenzthiazoline-6-sulphonic acid (ABTS) 7 mM with K2S2O8 2.45 mM, both reactants dissolved in water, and at the volume ratio of 1:1. The mixture was stored in the dark at room temperature for 16 h. The ABTS^+ solution was diluted to give an absorbance of 0.750 ± 0.025 at 734 nm in EtOH. All the compounds tested were dissolved in EtOH. 150 µL of each compound solution was added to the wells of the 96-well plate, followed by the addition of 50 µL of the ABTS^+ radical solution. Final compound concentrations tested were 0, 5, 10, 20, 50, 100, 150, 200 µM. The absorbance change at 734 nm was recorded after 30 min incubation in the dark, and the percentage of radical scavenging was calculated for each concentration relative to a blank containing no scavenger. The degree of decolorization was calculated as the percentage reduction of absorbance. The ABTS^+ radical scavenging activity was calculated as follows: Percentage ABTS^+ radical scavenging activity = {1 − [As/Ac]} × 100(1) where As is the absorbance of the ABTS^+ radical solution containing samples and Ac the absorbance of the control solution without antioxidant. The percentages of ABTS^+ radical reduced were plotted against compound concentration. Trolox was used as a reference antioxidant. All the assays were carried out three times by quadruplicate for each compound.

[2] = Cytotoxicity in SH-SY5Y cells (MTT); format: cell-based; settings: human, SH-SY5Y neuronal cells, concentration reducing cell viability to 50% of control
Protocol: So, to study the neuroprotectant potential of β-diketones in the SH-SY5Y cell line, we firstly need to determine their cytotoxicity in the same cellular model. […] In addition to that, within each series, the introduction of a second fluorine atom in the left-hand side phenyl ring decreases also the cytotoxicity.
SH-SY5Y cells were seeded into 96-well plates at a density of 5 × 10^3 cells/well and grown in the incubator for 24 h. All compounds tested were dissolved and eventually further diluted in dimethylsulfoxide (DMSO). After overnight incubation, the cells were treated with different test concentrations (5, 10, 20, 50, 100, 150, 200 µM) in a final volume of 200 µL with four replicates each. […] Cell proliferation or viability was measured using the 3-(4,5-dimethylthiazol-2-yl)-2,5-diphenyl tetrazolium bromide (MTT) assay. After 24 h, 20 µL of MTT (5 mg/mL) was added to each well and the plate was incubated at 37 °C in the dark for 2 h. Supernatants were removed and the formazan crystals were solubilized in DMSO (200 µL/well), under 10 min shaking at room temperature. The reduction of MTT was quantified by absorbance at 570 nm Varioskan microplate reader (Thermo Fisher Scientific, Vantaa, Finland). Effects of the test compounds on cell viability were calculated using cells treated with vehicle as control. The data were subjected to linear regression analysis and the regression lines were plotted for the best fit. The IC50 (inhibition of cell viability) concentrations were calculated using the respective dose-response curves.

[3] = DPPH radical scavenging assay; format: biochemical; settings: antioxidant concentration that decreases initial DPPH^• concentration by 50%; 30 min, 517 nm
Protocol: The assay was performed in a 96-well microplate. A 0.2 mM solution of 2,2-diphenyl-1-picryl-hydrazyl-hydrate (DPPH) in ethanol was prepared. All the compounds tested were dissolved in EtOH. Firstly, 150 µL of each compound solution was added to the wells of the 96-well plate, followed by the addition of 50 µL of the DPPH solution. Final compound concentrations tested were 0, 5, 10, 20, 50, 100, 150, 200 µM. The change in absorbance at 517 nm was measured after 30 min incubation in the dark. The free radical scavenging activity was calculated as inhibition using the following Equation (2): Percentage DPPH radical scavenging activity = {1 − [As/Ac]} × 100(2) where As is the absorbance of the DPPH solution containing samples and Ac the absorbance of the control solution without antioxidant but with DPPH. The percentages of DPPH reduced were plotted against compound concentration. The experiment was also conducted using Trolox as reference antioxidant. Assays were performed three times by quadruplicate for each compound.

[4] = FRAP (Ferric Reducing Antioxidant Power) assay; format: biochemical; settings: for FRAP-TEAC100: Trolox Equivalent Antioxidant Capacity vs 100 µM solution of the substance, from FRAP assay; for FRAP Assay (%) at 100 µM / FRAP Assay (%) at 200 µM: 30 min, 593 nm
Protocol: The assay was carried out according to the method of Benzie et al. with slight modifications, in a 96-well microplate. FRAP reagent was prepared by mixing 10 mL of 300 mM acetate buffer with 1 mL of 10 mM 2,4,6-tripyridyl-S-triazine (TPTZ) in HCl 40 mM and 1mL of FeCl3·6H2O 20 mM. Firstly, 190 µL of the FRAP reagent were added to all wells of the 96-well plate, followed by the addition to the well of 10 µL of the test compounds dissolved in Ethanol to reach the final concentrations assayed (0, 5, 10, 20, 50, 100, 150, 200 µM). After 30 min incubation in the dark, the absorbance was read at 593 nm. Trolox was used as assay control. Three different assays were carried out by quadruplicate for each compound.

SH-SY5Y cells [5] = assay: Mitochondrial membrane potential by flow cytometry (JC-1) in SH-SY5Y cells under H2O2; format: cell-based, human; settings: 400 µM H2O2, no compound
Protocol: To confirm this MMP recovery results, flow cytometry experiments were carried out with compound 7b and SH-SY5Y cells. Cells were treated with 7b for 24 h and then were exposed to 400 µM H2O2 for 4 h. JC-1 was used as fluorescence indicator of MMP state. In flow cytometry studies of MMP, JC-1 is excited at 488 nm wavelength. Both JC-1 aggregates and monomers show green fluorescence (peak emission at 527 nm) measured in the FL1 channel. […] Thus, healthy non-apoptotic cells are detected in both FL1 and FL2 channels, while cells with disrupted mitochondrial function show fluorescence in FL1 channel but reduced FL2 intensity. […] From these flow cytometry experiments, we can confirm that after compound 7b treatment there is a significant MMP recovery in SH-SY5Y cells under oxidative stress pressure.
For MMP flow cytometry studies, 10^5 SH-SY5Y cells were seeded in 6 well plates. After 24 h, cells were treated with test compound and incubated for other 24 h. After the treatment period, cells were exposed to H2O2 for 4 h. Then, cells were washed twice with Hanks buffer and stained with 5 µM JC-1 in culture media in dark, in a CO2 incubator at 37 °C for 20 min. After the staining period, cells were washed three times with Hanks buffer, collected and resuspended in 500 µL culture media. Data were obtained and analyzed using an Accuri C6 flow cytometer (BD Biosciences, Ann Arbour, MI, USA). […]

SH-SY5Y cells [6] = settings: read-out: H2O2 lethal dose (EC50; LD50), 24 h incubation, cell viability 50% of the control
Protocol: To test our work hypothesis, neuroprotection studies were carried out with β-diketones 6b and 7b in the SH-SY5Y cell line under oxidative stress conditions.

SH-SY5Y cells [7] = assay: Mitochondrial membrane potential (JC-1, microplate reader) in SH-SY5Y cells under H2O2; format: cell-based, human; settings: SH-SY5Y exposed to 200 µM H2O2 for 24 h, no compound
Protocol: To know whether β-diketones 6b and 7b will protect the mitochondrial membrane from depolarization under oxidative stress conditions, MMP experiments were carried out with the cationic dye JC-1 (5,5′,6,6′-tetrachloro-1,1′,3,3′-tetraethylbenzimi-dazolylcarbocyanine iodide). JC-1 enters selectively into mitochondria and reversibly change color from red to green as the membrane potential decrease. In healthy cells, JC-1 forms red fluorescent J-aggregates while in apoptotic cells with low MMP, JC-1 remains as monomers with green fluorescence. The ratio of J-aggregates to J-monomers is an indication of healthy non-apoptotic cells.
The fluorescent dye 5,5′,6,6′-tetrachloro-1,1′,3,3′-tetraethylbenzimidazolylcarbocyanine iodide (JC-1) was used for measuring MMP [111]. A decrease in fluorescence intensity represents mitochondrial membrane depolarization. For fluorescence ratio detection under oxidative stress conditions, 96 well plates were seeded with 3 × 10^3 SH-SY5Y cells and after 24 h incubation they were treated with test compound and left out for 24 h. Then, cells were exposed to different H2O2 concentrations for 24 h. After the incubation period, cells were washed twice with Hanks buffer and then stained with 5 µM JC-1 in culture media in dark, in a CO2 incubator at 37 °C for 20 min. At the end of the dye incubation period, cells were washed three times with Hanks buffer and 200 µL of fresh buffer was added. Cells were analyzed with a Varioskan microplate reader. J-aggregates red fluorescence intensity was measured at 535 nm excitation and 595 nm emission wavelength, while excitation at 485 nm and emission 535 nm wavelength was used for J-monomers green fluorescence. Results were expressed as the ratio of fluorescence intensity of J-aggregates to J-monomers. […] JC-1 aggregates show red fluorescence (peak emission at 590 nm) measured in the FL2 channel. Thus, healthy non-apoptotic cells are detected in both FL1 and FL2 channels, while cells with disrupted mitochondrial function show fluorescence in FL1 channel but reduced FL2 intensity.

SH-SY5Y cells [8] = assay: SH-SY5Y neuroprotection assay against H2O2 (MTT); format: cell-based, human; settings: compound 5-50 µM for 24 h, then 200 µM H2O2 for 24 h
Protocol: For neuroprotection experiments, SH-SY5Y cells were treated with test compound at different concentrations (5, 10, 20, 30, 40, and 50 µM) for 24 h. After the incubation period, cells were exposed to H2O2 200 µM for 24 h. At the end of the treatment, cell viability was measure with MTT.
Compound neuroprotection under H2O2-induced oxidative stress was assessed by MTT assay. Briefly, SH-SY5Y were seeded into 96-well plates at a density of 3 × 10^3 cells/well and grown in the incubator for 24 h. Cells were pretreated for 24 h with different compound concentrations (5, 10, 20, 30, 40, 50 µM). After the treatment period, cells were exposed to 200 µM H2O2 for 24 h. Cell viability was measured with MTT following the same procedure described above. Cell viability was expressed as the percentage of the control value (cells without treatment with H2O2).

[9] = Kinetic solubility by UV spectrometry in 10 mM PBS; format: physicochemical; settings: 10 mM phosphate buffered saline, aqueous buffer, kinetic from dmso stock
Protocol: Among the most important physicochemical parameters in drug-discovery, solubility and chemical stability in aqueous media are the determinants for non-toxic and brain-permeable drug-like compounds with good bioavailability. So, compounds with good aqueous solubility are the best candidates for drug-discovery progression. […] The assays were performed at room temperature, in 10 mM Phosphate Buffered Saline (PBS) from compound stocks in DMSO at 20 mM concentration.
A modified protocol was used from that described by Hoelke et al. for the determination of the kinetic solubility from DMSO compound solutions. A compound calibration curve (compound concentration vs. UV absorption) was prepared on a 48 well plate for each compound with concentrations in the range of 10 µM to […]. Each compound dilution was carried out by pipetting defined volumes of a 20 mM stock compound solution in DMSO into the wells and adding PBS 10 mM to reach a final volume of 500 µL/well. The final amount of DMSO per well was 2%. For the lower compound concentrations, an additional volume of DMSO was added into each well to reach the 2% of DMSO. Then, 200 µL of each dilution was transferred to a new 96 well plate for the measurement of the UV-spectra. One well in each row was left without compound as a blank and its UV absorbance was used as an offset correction. The experiments were carried out by duplicate.
(§1) In parallel compound saturation solutions were obtained and filtered from 20 mM compound stock in DMSO. So, 10 µL of 20 mM stock solution were dispensed to 190 µL of PBS 10 mM. The solutions were mixed, shaken in a microplate shaker for two hours, and then 160 µL of each solution were filtered and transferred to a new well plate for UV absorption measure. The compound stability in PBS 10 mM was determined at 24, 48 and 72 h with solutions prepared as those for the compound calibration curve.
Measurement of the UV-spectra was performed using a Varioskan microplate reader and spectra were taken in the range of 270–600 nm. Spectral bandwidth was set to 5 nm and the data pint interval was 10 nm. […]

[10] = Chemical stability in 10 mM PBS; format: physicochemical; settings: 6b, 7b at 400 µM, curcumin at 50 µM
Protocol: It is also important to know compound integrity at those concentrations used in biological assays, and for that, the chemical stability was determined in 10 mM PBS after 6 h, 24 h and 48 h.
as §1

melting point [°C]	IC50 [1] [µM]	IC50 [3] [µM]	SMILES	ABTS-TEAC100 [1]	IC50 at 24 h [2] [µM]	FRAP-TEAC100 [4]	FRAP Assay (%) at 100 µM [4] [%]	FRAP Assay (%) at 200 µM [4] [%]	Increase in the FLA-1/FLA-2 ratio (SH-SY5Y cells [5]) [fold]	EC50 (SH-SY5Y cells [6]) [µM]	MMP reduction (SH-SY5Y cells [7])	Cell viability after H2O2 (neuroprotection) (SH-SY5Y cells [8])	solubility at 2 h [9] [µg/mL]	Remaining Compound (%) 0 h ([10]; 0 h) [%]	Remaining Compound (%) 6 h ([10]; 6 h) [%]	Remaining Compound (%) 24 h ([10]; 24 h) [%]	Remaining Compound (%) 48 h ([10]; 48 h) [%]
159.9	50.5 ± 2	42.3 ± 3.4	COc1cc(/C=C/C(O)=C/C(=O)c2ccccc2)ccc1O [Compound 1a, (2Z,4E)-3-Hydroxy-5-(4-hydroxy-3-methoxyphenyl)-1-phenylpenta-2,4-dien-1-one]	0.88	104 ± 6.7	0.59	32.2	55.7									
179.3	79.6 ± 4.3		O=C(/C=C(O)/C=C/c1ccc(O)c(F)c1F)c1ccccc1 [Compound 7a, (2Z,4E)-5-(2,3-Difluoro-4-hydroxyphenyl)-3-hydroxy-1-phenylpenta-2,4-dien-1-one]	0.69	126 ± 8	0.22	14.0	20.7									
			OO [Compound H2O2, hydrogen peroxide, reference compound]						2	200	about 62%						
			COc1cc(/C=C/C(=O)CC(=O)/C=C/c2ccc(O)c(OC)c2)ccc1O [Curcumin, reference compound]		48.8 ± 5.1							slight protection	24 ± 3 (≈ 65.1 µM)	100	55.9 ± 10.6	42.9 ± 9.0	38.1 ± 7.4
